Assay results as given in patent US11913020B2, “Method for improving stem cell migration using ethionamide” (Samsung Life Public Welfare Foundation, priority 2017, dated 2024).

Columns and labels:
[1] = test system: human umbilical cord mesenchymal stem cells; details: ethionamide 10 or 100 μM, 24 hours incubation; scratch observed after 14 hours; compared to control not treated
Description: To this end, human umbilical cord mesenchymal stem cells (5×10^4 cells) prepared according to the method described in Example 1 were dispensed into a 6-well plate, and simultaneously treated with ethionamide at 10 or 100 μM, followed by incubation for 24 hours. Subsequently, to inhibit cell proliferation, the cells were treated with mitomycin C at 10 μg/mL to allow a reaction for 2 hours, a scratch was made on the plate using a tip, followed by exchanging the medium with a fresh medium.

[2] = test system: human umbilical cord mesenchymal stem cells; details: ethionamide 10 or 100 μM, 24 hours incubation; compared to control not treated
Description: To this end, the human umbilical cord mesenchymal stem cells (5×10^4 cells) prepared by the method described in Example 1 were dispensed into a Transwell plate (Costar, USA) with an 8.0 μm pore size, and treated with ethionamide at 10 or 100 μM, followed by incubation for 24 hours. Subsequently, the cells were fixed with 4% paraformaldehyde and stained with hematoxylin, the inner side of the Transwell was wiped with a cotton tip, and then the number of cells present on the bottom surface of the Transwell was measured using a microscope.

CXCR4 = details: treated with ethionamide for 72 hours; compared with stem cells not treated (Control)
Description: To this end, the human mesenchymal stem cells prepared according to the method described in Example 1 were treated with ethionamide for 72 hours, and then lysed with TRIzol (Ambion, USA). Subsequently, following the addition of chloroform (Sigma Aldrich, USA) and centrifugation, only a supernatant was transferred to a new tube, treated with isopropanol (Amresco, USA), and centrifuged to precipitate RNA. Afterward, the precipitated RNA was treated with 75% ethanol (Merck Millipore, USA) for washing, and the completely dried RNA was dissolved in DEPC water (Biosesang, Korea). 5 μg of RNA extracted from the human mesenchymal stem cells treated or not treated with ethionamide by the above-described method was used for cDNA synthesis, and here, for the cDNA synthesis, a cDNA synthesis kit (Invitrogen, USA) was used. Afterward, 10 pM of a primer (Bioneer, Korea) specific for CXCR4, which is a gene related to stem cell migration, and a SYBR green master mix (Applied Biosystems, USA) were added to the synthesized cDNA, and cDNA was amplified using a real time-PCR device (Applied Biosystems, USA), followed by assessment of the amplified result to measure an initial amount of cDNA.

SMILES: CCc1cc(C(N)=S)ccn1 [ethionamide, 2-ethylpyridine-4-carbothioamide]
- migration ability of human mesenchymal stem cells (number of migrating stem cells) [1]: significantly increased
- invasion ability of human mesenchymal stem cells (number of cells on bottom surface of Transwell) [2]: significantly increased
- expression level of the CXCR4 gene (CXCR4): at least 4 fold
